Settings: Liquid, Vibrating tube method

CCCCCCCC [octane]
Settings	mass density [kg/m3]
313.15 K, 100 kPa	686.05
313.15 K, 1030 kPa	687.19
313.15 K, 1950 kPa	688.13
313.15 K, 2950 kPa	689.08
313.15 K, 3960 kPa	690
313.15 K, 4960 kPa	690.87
313.15 K, 5970 kPa	691.78
313.15 K, 6970 kPa	692.65
313.15 K, 7980 kPa	693.54
313.15 K, 8980 kPa	694.38
313.15 K, 9990 kPa	695.26
313.15 K, 11030 kPa	696.11
313.15 K, 11950 kPa	696.94
313.15 K, 12950 kPa	697.75
313.15 K, 13960 kPa	698.56
313.15 K, 14960 kPa	699.37
313.15 K, 15970 kPa	700.18
313.15 K, 16970 kPa	700.99
313.15 K, 17980 kPa	701.77
313.15 K, 18980 kPa	702.53
313.15 K, 19990 kPa	703.31
323.15 K, 100 kPa	677.56
323.15 K, 950 kPa	678.99
323.15 K, 1960 kPa	680.02
323.15 K, 2970 kPa	681.01
323.15 K, 3980 kPa	681.99
323.15 K, 4980 kPa	682.97
323.15 K, 5980 kPa	683.91
323.15 K, 6990 kPa	684.86
323.15 K, 7990 kPa	685.78
323.15 K, 9000 kPa	686.69
323.15 K, 10090 kPa	687.59
323.15 K, 10950 kPa	688.51
323.15 K, 11960 kPa	689.4
323.15 K, 12970 kPa	690.29
323.15 K, 13980 kPa	691.16
323.15 K, 14980 kPa	691.98
323.15 K, 15980 kPa	692.86
323.15 K, 16990 kPa	693.68
323.15 K, 17990 kPa	694.53
323.15 K, 19000 kPa	695.33
323.15 K, 20090 kPa	696.18
333.15 K, 100 kPa	669.13
333.15 K, 1050 kPa	670.67
333.15 K, 1940 kPa	671.75
333.15 K, 2950 kPa	672.81
333.15 K, 3950 kPa	673.87
333.15 K, 4960 kPa	674.91
333.15 K, 5960 kPa	675.95
333.15 K, 6960 kPa	676.93
333.15 K, 7990 kPa	677.93
333.15 K, 8990 kPa	678.93
333.15 K, 10000 kPa	679.89
333.15 K, 11050 kPa	680.86
333.15 K, 11940 kPa	681.81
333.15 K, 12950 kPa	682.71
333.15 K, 13950 kPa	683.67
333.15 K, 14960 kPa	684.58
333.15 K, 15960 kPa	685.48
333.15 K, 16960 kPa	686.34
333.15 K, 17990 kPa	687.26
333.15 K, 18990 kPa	688.1
333.15 K, 20000 kPa	688.97
343.15 K, 100 kPa	661.02
343.15 K, 960 kPa	662.23
343.15 K, 1970 kPa	663.39
343.15 K, 2980 kPa	664.55
343.15 K, 3980 kPa	665.65
343.15 K, 4990 kPa	666.79
343.15 K, 5990 kPa	667.86
343.15 K, 7000 kPa	668.94
343.15 K, 8010 kPa	670.02
343.15 K, 9010 kPa	671.05
343.15 K, 10100 kPa	672.12
343.15 K, 10960 kPa	673.13
343.15 K, 11970 kPa	674.15
343.15 K, 12980 kPa	675.12
343.15 K, 13980 kPa	676.13
343.15 K, 14990 kPa	677.1
343.15 K, 15990 kPa	678.03
343.15 K, 17000 kPa	678.97
343.15 K, 18010 kPa	679.93
343.15 K, 19010 kPa	680.86
343.15 K, 20100 kPa	681.78
353.15 K, 100 kPa	652.22
353.15 K, 1060 kPa	653.65
353.15 K, 1940 kPa	654.91
353.15 K, 2950 kPa	656.12
353.15 K, 3960 kPa	657.35
353.15 K, 4960 kPa	658.54
353.15 K, 5960 kPa	659.71
353.15 K, 6970 kPa	660.9
353.15 K, 7980 kPa	662.03
353.15 K, 8980 kPa	663.17
353.15 K, 9980 kPa	664.24
353.15 K, 11060 kPa	665.33
353.15 K, 11940 kPa	666.44
353.15 K, 12950 kPa	667.49
353.15 K, 13960 kPa	668.52
353.15 K, 14960 kPa	669.56
353.15 K, 15960 kPa	670.6
353.15 K, 16970 kPa	671.6
353.15 K, 17980 kPa	672.57
353.15 K, 18980 kPa	673.56
353.15 K, 19980 kPa	674.52
363.15 K, 100 kPa	643.71
363.15 K, 950 kPa	644.91
363.15 K, 1960 kPa	646.3
363.15 K, 2970 kPa	647.63
363.15 K, 3970 kPa	648.92
363.15 K, 4980 kPa	650.23
363.15 K, 5980 kPa	651.49
363.15 K, 6990 kPa	652.73
363.15 K, 7990 kPa	653.97
363.15 K, 8990 kPa	655.15
363.15 K, 10090 kPa	656.34
363.15 K, 10950 kPa	657.54
363.15 K, 11960 kPa	658.66
363.15 K, 12970 kPa	659.79
363.15 K, 13970 kPa	660.94
363.15 K, 14980 kPa	662.01
363.15 K, 15980 kPa	663.09
363.15 K, 16990 kPa	664.19
363.15 K, 17990 kPa	665.21
363.15 K, 18990 kPa	666.28
363.15 K, 20090 kPa	667.28
